Several values for one entry are separate records, joined by “and”; a condition that tells them apart may be missing. Identical values can stand only once. Like-named read-outs stand apart in the source and are kept apart here.
Columns and labels:
[1] = test system: A-549 (lung cancer cell line); experiment: Antiproliferative assay (MTT), A-549; type: cell-based; settings: Homo sapiens, A549; read-out: Antiproliferative Activity IC50 ± SEM (µM) A-549
Protocol: (§1) The antiproliferative activity of pyrazoline hybrids 8–17 was tested against the four human cancer cell lines Panc-1 (pancreatic cancer cell line), MCF-7 (breast cancer cell line), HT-29 (colon cancer cell line), and A-549 (lung cancer cell line) using the MTT assay and doxorubicin as the reference drug. See Appendix SA (Supplementary File).
(§2) 4.2. Biological evaluation
(§3) 4.2.1. Cytotoxic activity using MTT Assay and evaluation of IC50 […]
(§4) 96-well flat-bottomed cell culture plates were used to seed the cells at a […]
(§5) of 10^4 cells mL-1. The medium was aspirated from all the wells of culture plates after 24 h followed by the addition of synthesized compounds (in 200 μL medium to yield a final concentration of 0.1% (v/v) dimethyl sulfoxide) into individual wells of the plates. Four wells were designated to a single compound. The plates were allowed to incubate at 37°C for 96 h. Afterwards, the medium was aspirated and 3 -[4,5-dimethylthiazol-2-yl]-2,5-diphenyltetrazolium bromide (MTT) (0.4 mg/mL) in medium was added to each well and subsequent ly incubated for 3 h. The medium was aspirated and 150 μL dimethyl sulfoxide (DMSO) was added to each well. The plates were vortexed followed by the measurement of absorbance at 540 nm on a microplate reader. The results were presented as inhibition (%) of proliferation in contrast to controls comprising 0.1% 4.2.1.2. Assay for antiproliferative effect
(§6) To explore the antiproliferative potential of compounds propidium iodide fluorescence assay was performed using different cell lines such as Panc -1 (pancreas cancer cell line), MCF-7 (breast cancer cell line), HT-29 (colon cancer cell line) and A-549 (epithelial cancer cell line), respectively. To calculate the total nuclear DNA, a fluorescent dye (propidium iodide, PI) is used which can attach to the DNA, thus offering a quick and precise technique. PI cannot pass through the cell membrane and its signal intensity can be considered as directly proportional to quantity of cellular DNA. Cells whose cell membranes are damaged or have changed permeability are counted as dead ones. The assay was performed by seeding the cells of different cell lines at a density of 3000-7500 cells/well (in200μl medium) in culture plates followed by incubation for 24h at 37 °C in humidified 5%CO2/95% air atmospheric conditions. The medium was removed; the compounds were added to the plates at 10 μM concentrations (in 0.1% DMSO) in triplicates, followed by incubation for 48h. DMSO (0.1%) was used as control. After incubation, medium was removed followed by the addition of PI (25 μl, 50μg/mL in water/medium) to each well of the plates. At - 80 °C, the plates were allowed to freeze for 24 h, followed by thawing at 25 °C. A fluorometer (Polar-Star BMG Tech) was used to record the readings at excitation and emission wavelengths of 530 and 620 nm for each well. The percentage cytotoxicity of compounds was calculated using […]
(§7) Where ATC= Absorbance of treated cells and AC= Absorbance of control. Erlotinib was used as positive control in the assay. […]

[2] = test system: MCF-7 (breast cancer cell line); experiment: Antiproliferative assay (MTT), MCF-7; type: cell-based; settings: Homo sapiens, MCF7; read-out: Antiproliferative Activity IC50 ± SEM (µM) MCF-7
Protocol: as §1, §2, §3, §4, §5, §6, §7

[3] = test system: Panc-1 (pancreatic cancer cell line); experiment: Antiproliferative assay (MTT), Panc-1; type: cell-based; settings: Homo sapiens, read-out: Antiproliferative Activity IC50 ± SEM (µM) Panc-1
Protocol: as §1, with “File). […]” for “File).”
(§8) 4.2.1.2. Assay for antiproliferative effect
as §6, §7

[4] = test system: four human cancer cell lines (A-549, MCF-7, Panc-1, HT-29); experiment: Antiproliferative assay, mean of four cancer cell lines (GI50); type: cell-based; settings: mean over A-549, MCF-7, Panc-1, HT-29
[5] = Cell viability assay (MTT) on normal mammary epithelial cells; type: cell-based; settings: human, MCF-10A normal mammary gland epithelial cells, MCF-10A cells, four days
Protocol: To test the viability of new substances, the epithelial (MCF-10A) cell line of the normal human mammary gland was used. Compounds 8–17 were incubated for four days on MCF-10A cells before being tested for viability using the MTT assay. According to Table 1, none of the substances tested were cytotoxic, and cell viability at 50 µM was greater than 87% for the compounds tested.
The normal human mammary gland epithelial (MCF-10A) cell line was used to test the viability of new compounds [46, 47]. See Appendix SA (Supplementary File).
as §2
4.2.1. Cytotoxic activity using MTT Assay and evaluation of IC50
MTT assay was performed to investigate the effect of the synthesized compounds on mammary epithelial cells (MCF-10A). The cells were propagated in medium consisting of Ham's F-12 medium/ Dulbecco's modified Eagle's medium (DMEM) (1:1) supplemented with 10% foetal calf serum, 2 mM glutamine, insulin (10 μg/mL), hydrocortisone (500 ng/mL) and epidermal growth factor (20 ng/mL). Trypsin ethylenediamine tetra acetic acid (EDTA) was used to passage the cells after every 2-3 days. 96-well flat-bottomed cell culture plates were used to seed the cells at a […]
as §5, with “The results were presented as inhibition (%) of proliferation in contrast to controls comprising 0.1% 4.2.1.2. Assay for antiproliferative effect” left out

[6] = test system: HT-29 (colon cancer cell line); experiment: Antiproliferative assay (MTT), HT-29; type: cell-based; settings: Homo sapiens, read-out: Antiproliferative Activity IC50 ± SEM (µM) HT-29
Protocol: as §1, with “File). […]” for “File).”
as §8, §6, §7

EGFR [7] = target: T1, EGFR (Homo sapiens, UniProt P00533); experiment: EGFR inhibitory assay; type: biochemical; settings: read-out: EGFR Inhibition IC50 ± SEM
T1 construct: 645–1186); His6 (N); made in house; host or cells: Sf-9 insect cells (baculovirus; pBlueBacHis2B / pFASTBacHTc
Protocol: 4.2.2. EGFR inhibitory assay
Baculoviral expression vectors including pBlueBacHis2B and pFASTBacHTc were used […]
(1 picture or pasted object on this page, not shown here)
5ʹ upstream to the EGFR sequence comprised a sequence that encoded (His)6. Sf-9 cells were infected for 72h for protein expression. The pellets of Sf-9 cells were solubilized in a buffer containing sodium vanadate (100 μM), aprotinin (10 μg/mL), triton (1%), HEPES […]
centrifugation for 20 min.
Histidine-linked proteins were first eluted with 250 and then […]
enhancement solution was added to each well and the signal was recorded at excitation and […]
The autophosphorylation percentage inhibition by compounds was calculated using the following equation: […]

BRAF^V600E [8] = experiment: BRAF^V600E inhibitory assay
Target sequence in this assay (P28028 whole entry V585E): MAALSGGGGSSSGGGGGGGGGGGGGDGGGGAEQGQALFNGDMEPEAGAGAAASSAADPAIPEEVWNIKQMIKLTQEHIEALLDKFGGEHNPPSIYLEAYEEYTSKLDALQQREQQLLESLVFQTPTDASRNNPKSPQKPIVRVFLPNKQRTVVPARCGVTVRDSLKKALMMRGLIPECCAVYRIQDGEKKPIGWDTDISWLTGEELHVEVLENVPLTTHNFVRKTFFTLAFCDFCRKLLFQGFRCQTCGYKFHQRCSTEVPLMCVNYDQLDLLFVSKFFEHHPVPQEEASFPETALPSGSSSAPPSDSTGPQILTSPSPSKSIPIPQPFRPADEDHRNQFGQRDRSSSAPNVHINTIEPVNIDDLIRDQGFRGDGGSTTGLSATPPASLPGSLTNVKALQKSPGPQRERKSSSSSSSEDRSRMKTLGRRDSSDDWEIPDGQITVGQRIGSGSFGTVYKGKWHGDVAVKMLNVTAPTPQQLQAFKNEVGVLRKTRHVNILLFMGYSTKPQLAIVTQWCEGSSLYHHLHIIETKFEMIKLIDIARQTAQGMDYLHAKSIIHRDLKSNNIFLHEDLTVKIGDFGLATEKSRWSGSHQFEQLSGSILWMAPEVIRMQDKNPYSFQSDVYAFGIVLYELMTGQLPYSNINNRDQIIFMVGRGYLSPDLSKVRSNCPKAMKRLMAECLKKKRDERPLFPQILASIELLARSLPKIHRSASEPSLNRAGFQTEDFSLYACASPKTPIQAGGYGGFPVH
Protocol: V600E mutant BRAF kinase assay was performed to investigate the activity of tested compounds against BRAF. Mouse full-length GST-tagged BRAFV600E (7.5 ng, Invitrogen, PV3849) was pre-incubated with drug (1 µL) and assay dilution buffer (4 µL) for 60 min at 25 °C. In assay dilution buffer, a solution (5 µL) containing MgCl2 (30 mM), ATP (200 µM), recombinant human full length (200 ng) and N-terminal His-tagged MEK1 (Invitrogen) was added to start the assay, subsequent to incubation for 25 min at 25 °C. The assay was stopped using 5X protein denaturing buffer (LDS) solution (5 µL). To further denature the protein, heat (70° C) was applied for 5 min.
10 µL of each reaction was loaded into the precast plates and electrophoresis was allowed to proceed. After completion of electrophoresis, the front part of the precast gel plate (holding hot ATP) was cut and afterwards cast-off. The dried gel was developed using a phosphor screen.
served as positive control.

EGFR [9] = target: T1, EGFR; set-up: method as in PMID 35424523; settings: cited from earlier work
BRAF^V600E [10] = test system: BRAF^V600E; set-up: method as in PMID 35424523; settings: cited from earlier work

T1 sequence (P00533 669-1210): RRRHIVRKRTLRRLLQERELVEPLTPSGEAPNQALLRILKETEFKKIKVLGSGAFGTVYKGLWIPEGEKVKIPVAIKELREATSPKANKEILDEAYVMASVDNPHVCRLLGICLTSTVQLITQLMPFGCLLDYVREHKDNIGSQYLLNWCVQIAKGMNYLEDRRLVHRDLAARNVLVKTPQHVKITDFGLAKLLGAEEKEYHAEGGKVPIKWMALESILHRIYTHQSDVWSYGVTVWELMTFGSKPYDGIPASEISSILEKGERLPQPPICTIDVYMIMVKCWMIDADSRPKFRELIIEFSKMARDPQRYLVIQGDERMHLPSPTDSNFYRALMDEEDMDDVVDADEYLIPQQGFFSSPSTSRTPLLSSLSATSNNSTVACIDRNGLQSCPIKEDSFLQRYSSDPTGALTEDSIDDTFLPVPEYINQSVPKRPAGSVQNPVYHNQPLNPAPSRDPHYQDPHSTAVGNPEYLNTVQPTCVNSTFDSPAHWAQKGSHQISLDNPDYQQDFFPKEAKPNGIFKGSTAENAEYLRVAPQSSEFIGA

Row | Compound | IC50 [1] [µM] | IC50 [2] [µM] | IC50 [3] [µM] | IC50 [4] [µM] | IC50 [6] [µM] | IC50 (EGFR [7]) [µM] | IC50 (BRAF^V600E [8]) [µM] | viability at 96 h, 50 µM [5] [%] | IC50 (EGFR [9]) | IC50 (BRAF^V600E [10])
1 | O=C(COc1ccc(C2=NNC(c3ccc(Cl)cc3)C2)cc1)Nc1ccc(C2=NNC(c3ccccc3)C2)cc1 (stereo not shown) [Compound 8, 2-(4-(5-(4-Chlorophenyl)-4,5-dihydro-1H-pyrazol-3-yl)phenoxy)-N-(4-(5-phenyl-4,5-dihydro-1H-pyrazol-3-yl)phenyl)acetamide] | 4.3 ± 0.4 | 4.1 ± 0.4 | 4.6 ± 0.4 | 4.4 | 4.5 ± 0.4 |  |  | 90 |  | 
2 | O=C(COc1ccc(C2=NNC(c3ccc(Cl)cc3)C2)cc1)Nc1ccc(C2=NNC(c3ccc(Br)cc3)C2)cc1 (stereo not shown) [Compound 10, 2-(4-(5-(4-Chlorophenyl)-4,5-dihydro-1H-pyrazol-3-yl)phenoxy)-N-(4-(5-(4-bromophenyl)-4,5-dihydro-1H-pyrazol-3-yl)phenyl)acetamide] | 3.2 ± 0.3 | 2.9 ± 0.2 | 3.2 ± 0.3 | 3.1 | 3.1 ± 0.3 |  |  | 89 |  | 
3 | O=C(COc1ccc(C2=NNC(c3ccc(Cl)cc3)C2)cc1)Nc1ccc(C2=NNC(c3ccc(Cl)cc3)C2)cc1 (stereo not shown) [Compound 11, 2-(4-(5-(4-Chlorophenyl)-4,5-dihydro-1H-pyrazol-3-yl)phenoxy)-N-(4-(5-(4-chlorophenyl)-4,5-dihydro-1H-pyrazol-3-yl)phenyl)acetamide] | 2.9 ± 0.2 | 2.7 ± 0.2 | 2.9 ± 0.2 | 2.9 | 3 ± 0.2 |  |  | 87 |  | 
4 | COc1ccc(C2CC(c3ccc(OCC(=O)Nc4ccc(C5=NNC(c6ccc(C)cc6C)C5)cc4)cc3)=NN2)cc1 (stereo not shown) [Compound 13, 2-(4-(5-(4-Methoxyphenyl)-4,5-dihydro-1H-pyrazol-3-yl)phenoxy)-N-(4-(5-(2,4-dimethylphenyl)-4,5-dihydro-1H-pyrazol-3-yl)phenyl)acetamide] | 4.8 ± 0.4 | 4.6 ± 0.4 | 4.9 ± 0.4 | 4.8 | 5 ± 0.4 |  |  | 87 |  | 
5 | COc1ccc(C2CC(c3ccc(OCC(=O)Nc4ccc(C5=NNC(c6ccc(F)cc6)C5)cc4)cc3)=NN2)cc1 (stereo not shown) [Compound 16, 2-(4-(5-(4-Methoxyphenyl)-4,5-dihydro-1H-pyrazol-3-yl)phenoxy)-N-(4-(5-(4-fluorophenyl)-4,5-dihydro-1H-pyrazol-3-yl)phenyl)acetamide] | 3.7 ± 0.3 | 3.5 ± 0.3 | 3.8 ± 0.3 | 3.7 | 3.9 ± 0.3 |  |  | 89 |  | 
6 | Cc1c(Nc2nc3c(C(=O)NN)c(N)sc3s2)c(=O)n(-c2ccccc2)n1C [II] |  |  |  |  |  |  |  |  | 0.02 µM | 0.088 µM and 0.09 µM
7 | Cc1c(NC2=NC(=O)CS2)c(=O)n(-c2ccccc2)n1C [I] |  |  |  |  |  |  |  |  | 0.022 µM and 0.02 µM | 2.03 µM

Further molecules by falling IC50 [1], results first:

Row | IC50 [1] [µM] | IC50 [2] [µM] | IC50 [3] [µM] | IC50 [4] [µM] | IC50 [6] [µM] | IC50 (EGFR [7]) [µM] | IC50 (BRAF^V600E [8]) [µM] | Compound | viability at 96 h, 50 µM [5] [%] | IC50 (EGFR [9]) | IC50 (BRAF^V600E [10])
8 | 2.2 ± 0.2 | 1.9 ± 0.1 | 2.6 ± 0.2 | 2.3 | 2.5 ± 0.2 |  |  | COc1ccc(C2CC(c3ccc(NC(=O)COc4ccc(C5=NNC(c6ccc(Cl)cc6)C5)cc4)cc3)=NN2)cc1 (stereo not shown) [Compound 9, 2-(4-(5-(4-Chlorophenyl)-4,5-dihydro-1H-pyrazol-3-yl)phenoxy)-N-(4-(5-(4-methoxyphenyl)-4,5-dihydro-1H-pyrazol-3-yl)phenyl)acetamide] | 89 |  | 
9 | 1.8 ± 0.1 | 1.6 ± 0.1 | 2 ± 0.1 | 1.85 | 2 ± 0.1 | 0.104 ± 0.009 | 0.125 ± 0.01 | COc1ccc(C2CC(c3ccc(OCC(=O)Nc4ccc(C5=NNC(c6ccc(Br)cc6)C5)cc4)cc3)=NN2)cc1 (stereo not shown) [Compound 14, 2-(4-(5-(4-Methoxyphenyl)-4,5-dihydro-1H-pyrazol-3-yl)phenoxy)-N-(4-(5-(4-bromophenyl)-4,5-dihydro-1H-pyrazol-3-yl)phenyl)acetamide] | 89 |  | 
10 | 1.4 ± 0.1 | 1.2 ± 0.1 | 1.7 ± 0.1 | 1.5 | 1.7 ± 0.1 | 0.093 ± 0.007 | 0.098 ± 0.008 | COc1ccc(C2CC(c3ccc(OCC(=O)Nc4ccc(C5=NNC(c6ccc(Cl)cc6)C5)cc4)cc3)=NN2)cc1 (stereo not shown) [Compound 15, 2-(4-(5-(4-Methoxyphenyl)-4,5-dihydro-1H-pyrazol-3-yl)phenoxy)-N-(4-(5-(4-chlorophenyl)-4,5-dihydro-1H-pyrazol-3-yl)phenyl)acetamide] | 90 |  | 
11 | 1.4 ± 0.08 | 0.9 ± 0.02 | 1 ± 0.02 | 1.1 | 1.2 ± 0.03 |  |  | COc1cccc2c1C(=O)c1c(O)c3c(c(O)c1C2=O)C[C@@](O)(C(=O)CO)C[C@@H]3O[C@H]1C[C@H](N)[C@H](O)[C@H](C)O1 [Doxorubicin, reference compound] |  |  | 

— PMC10218941, “Design, Synthesis, Antiproliferative Actions, and DFT Studies of New Bis–Pyrazoline Derivatives as Dual EGFR/BRAF^V600E Inhibitors” (International Journal of Molecular Sciences, 2023)
